Experimental data published in US20260258083A1, “T Cell Engager Masking Molecules” (AMGEN INC., priority 2023, published 2026).
Where no end group is shown, it is not given here. [ ]: non-standard residue; d: D form. pGlu = O=C1CC[C@@H](C(=O)O)N1

Legend:
CD20 TCE = CD20 TCE + CD3ε PepPOL, v2 PK/PD study 157130 (Example 10); format: in vivo, cynomolgus monkeys
Procedure: Example 10: Cynomolgus Study CD20 TCE (0.010 mg/kg)+CD3ε PepPOL, v2 (+25× (0.016 mg/kg), +250× (0.16 mg/kg) Co-Administration in Cynomolgus Monkeys
PK/PD study 157130 was an exploratory dose-ranging study conducted in cynomolgus monkeys aimed to establish activity of a ‘high affinity’ CD3ε PepPOL, v2 when co-administered with CD20 TCE. Primary study endpoints included: cytokine release, CD20+ B cell lysis, T cell activation, and clinical chemistry end points typically associated with CRS (e.g., CRP). CD20 TCE was dosed at 10 ug/kg alone, or in combination with CD3ε PepPOL, v2 at 0.016 mg/kg (25× molar excess CD3ε peptide), or 0.160 mg/kg (250× molar excess CD3ε peptide). A summary of the results is described below.
Serum cytokines MCP-1, IL-6, TNFα, IFNγ, and IL-2 were assessed by multiplex sandwich immunoassay at multiple time points from 0-168 hours post dose.

[1] = tested on: FLT3×CD3 TCE (SEQ ID NO: 93); assay: Association kinetics by KinExA (Table 5); format: binding; details: KinExA, FLT3×CD3 TCE
Procedure: • 1. Preparation of NHS-activated sepharose fast-flow beads: • 2. Fast flow sepharose suspension in 100% IPA, washed twice with milliQ H20, mild centrifugation to pool beads in between wash steps. • 3. Equilibrated in 0.15 M NaBO3, pH=8.5 buffer • 4. Added 80 mM PDEA to activate the resin for thiol exchange, 10 mins, r.t. • 5. Equilibrated resin with Hepes Buffered Saline-P (0.01 M HEPES pH 7.4, 0.15 M NaCl, 0.005% v/v Surfactant P2), pH 7.4 binding buffer • 6. Added 30 μg/mL of binding peptide, […] (SEQ ID NO; 297) or pGlu-[…] (SEQ ID NO: 300), reaction for 1 hr to functionalize resin. • 7. Quench with 10 mM L-Cys for 1 hour. • 8. Constant Binding Partner was FLT3×CD3 TCE (SEQ ID NO: 93), MW 105720, 3.2 mg/mL 31.21 uM was diluted to 333 pM and the pGlu-[…] peptide or pGlu-[…]-PEG (Pep-PEG v2) were titrated from 1 uM or 400 nM down to 2.3 pM concentrations relative to effective peptide molarity.
Association Kinetics by KinExA

[2] = C57BL/6 mice, single dose, non-linear one-phase decay fitting
Description: Example 4: TCE Masking Molecule in PK Mouse Study
To further understand the in vivo behavior of the pyro-Glu containing dimeric p-[…]

STEAP1xCD3 TCE = assay: SPR solution assay of competition binding with TCE
Procedure: (§1) SPR Solution Assay of Competition Binding with TCE
(§2) As it can be derived from table 6,
(§3) A high affinity SPR ‘capture’ surface was first constructed to facilitate the SPR analysis of pre-equilibrated peptide analyte+TCE solutions. Briefly, a Cytiva CM5 chip was functionalized with PDEA (2-(2-pyridinyldithio)ethaneamine) under standard EDC/NHS coupling conditions where the PDEA is dissolved to 20 mM 2-(2-pyridinyldithio)ethaneamine and 1 M NaCl in 0.1 M sodium acetate pH 4.3, 6 peptide including p[…] (ID 14974, SEQ ID NO 304) were tested:
(§4) Respective peptide was dissolved to between 50 and 100-ug/mL for injection over the activated CM5 surface in PBST, pH 6.5, and coupling times were optimized to yield the desired surface density (~300RU).
(§5) For the binding assessment, Individual binding isotherms were constructed by titrating the respective peptide of interest into a fixed concentration of TCE-containing solution in PBST. At least 4 hrs equilibration time were allotted (r.t.) prior to analysis by SPR. For the analysis, a calibration curve was first constructed of the TCE analyte being assessed. For analysis of the TCE+peptide mixtures, the samples were injected (10 uL/min) over the previously prepared capture surface for 90 seconds, where the SPR response (RU) was recorded at the end of the injection and referenced to the previously prepared standard curve to derive an estimate of the ‘free’ TCE concentration in the presence of peptide analyte. The ‘free’ TCE concentration measured was plotted as a function of log peptide concentration and fit using non-linear regression analysis to a 4 parameter logistic function to derive an IC50.

FLT3xCD3 TCE = assay: SPR solution assay of competition binding with TCE; details: solution competition
Procedure: as §1, §2, §3, §4, §5

[3] = tested on: CLDN6xCD3 TCE SEQ ID NO 340; assay: SPR assay of immobilized peptides binding with TCE; details: immobilized peptide, Kinetic 1:1 Binding
Procedure: (§6) Example 14: SPR Assay of Immobilized Peptides Binding with TCE
(§7) A cytiva CM5 chip was first functionalized with PDEA (2-(2pyridinyldithio)ethaneamine) under standard ((1-ethyl-3-(3-dimethylaminopropyl)carbodiimide)/(N-hydroxysuccinimide) EDC/NHS coupling conditions where the PDEA is dissolved to 20 mM and 1 M NaCl in 0.1 M sodium acetate pH 4.3. Binding peptides were dissolved to 50- or 100-ug/mL respectively in PBST, pH 6.5, and coupling times were optimized to yield the desired surface density.

[4] = molecular target: Steap 1xCD3 TCE SEQ ID NO 373 + 374 + 375; assay: SPR assay of immobilized peptides binding with TCE; details: immobilized peptide, Kinetic 1:1 Binding
Procedure: as §6, §7

[5] = tested on: CDH3-CD3-MSLN-CD3 TCE (SEQ ID NO 255); assay: SPR assay of immobilized peptides binding with TCE
Procedure: as §6, §7

[6] = molecular target: DLL3xCD3 TCE SEQ ID NO 104; assay: SPR assay of immobilized peptides binding with TCE; details: immobilized peptide, Kinetic 1:1 Binding
Procedure: as §6, §7

[7] = molecular target: FLT3xCD3 TCE SEQ ID NO 93; assay: SPR assay of immobilized peptides binding with TCE; details: immobilized peptide, Kinetic 1:1 Binding
Procedure: as §6, §7

Sequence of CDH3-CD3-MSLN-CD3 TCE (SEQ ID NO 255) (as listed by the source): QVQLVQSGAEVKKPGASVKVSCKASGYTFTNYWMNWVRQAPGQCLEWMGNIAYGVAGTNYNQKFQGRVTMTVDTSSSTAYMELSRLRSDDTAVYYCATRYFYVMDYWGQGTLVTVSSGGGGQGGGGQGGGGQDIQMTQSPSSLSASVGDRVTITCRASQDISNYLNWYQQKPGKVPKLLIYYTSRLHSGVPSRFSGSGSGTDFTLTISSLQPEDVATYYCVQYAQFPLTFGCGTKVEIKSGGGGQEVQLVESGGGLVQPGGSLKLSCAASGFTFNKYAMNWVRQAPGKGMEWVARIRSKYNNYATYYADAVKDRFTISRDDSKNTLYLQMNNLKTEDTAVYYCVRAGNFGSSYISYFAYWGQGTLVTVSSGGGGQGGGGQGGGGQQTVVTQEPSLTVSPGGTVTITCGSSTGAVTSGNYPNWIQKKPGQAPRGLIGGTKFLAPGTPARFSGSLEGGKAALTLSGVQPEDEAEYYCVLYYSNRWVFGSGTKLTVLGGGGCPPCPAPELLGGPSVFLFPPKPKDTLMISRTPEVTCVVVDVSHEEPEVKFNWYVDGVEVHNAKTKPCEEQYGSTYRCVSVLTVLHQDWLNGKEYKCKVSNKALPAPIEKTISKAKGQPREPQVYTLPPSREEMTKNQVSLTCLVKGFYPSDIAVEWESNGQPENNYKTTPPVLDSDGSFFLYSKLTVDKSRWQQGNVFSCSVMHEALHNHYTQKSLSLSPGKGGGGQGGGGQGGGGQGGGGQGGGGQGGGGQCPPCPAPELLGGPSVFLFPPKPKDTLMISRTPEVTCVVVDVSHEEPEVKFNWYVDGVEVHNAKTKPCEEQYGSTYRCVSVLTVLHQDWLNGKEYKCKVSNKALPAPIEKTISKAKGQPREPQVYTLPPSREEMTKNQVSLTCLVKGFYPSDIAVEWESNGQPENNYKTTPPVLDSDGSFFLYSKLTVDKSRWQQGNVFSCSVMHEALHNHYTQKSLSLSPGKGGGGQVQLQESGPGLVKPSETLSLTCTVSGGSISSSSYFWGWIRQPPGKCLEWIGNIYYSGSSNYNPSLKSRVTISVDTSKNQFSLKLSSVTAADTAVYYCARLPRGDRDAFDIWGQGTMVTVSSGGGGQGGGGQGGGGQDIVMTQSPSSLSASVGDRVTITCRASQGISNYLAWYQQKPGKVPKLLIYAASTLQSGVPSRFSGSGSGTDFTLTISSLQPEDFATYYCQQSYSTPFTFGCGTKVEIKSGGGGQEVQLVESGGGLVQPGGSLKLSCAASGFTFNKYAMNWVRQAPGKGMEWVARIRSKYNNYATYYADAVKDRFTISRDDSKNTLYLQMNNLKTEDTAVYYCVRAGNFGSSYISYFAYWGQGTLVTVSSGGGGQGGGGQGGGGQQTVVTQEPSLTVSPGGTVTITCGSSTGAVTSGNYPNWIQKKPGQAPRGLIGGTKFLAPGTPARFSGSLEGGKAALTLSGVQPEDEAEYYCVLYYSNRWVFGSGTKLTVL
Sequence of FLT3xCD3 TCE SEQ ID NO 93 (as listed by the source): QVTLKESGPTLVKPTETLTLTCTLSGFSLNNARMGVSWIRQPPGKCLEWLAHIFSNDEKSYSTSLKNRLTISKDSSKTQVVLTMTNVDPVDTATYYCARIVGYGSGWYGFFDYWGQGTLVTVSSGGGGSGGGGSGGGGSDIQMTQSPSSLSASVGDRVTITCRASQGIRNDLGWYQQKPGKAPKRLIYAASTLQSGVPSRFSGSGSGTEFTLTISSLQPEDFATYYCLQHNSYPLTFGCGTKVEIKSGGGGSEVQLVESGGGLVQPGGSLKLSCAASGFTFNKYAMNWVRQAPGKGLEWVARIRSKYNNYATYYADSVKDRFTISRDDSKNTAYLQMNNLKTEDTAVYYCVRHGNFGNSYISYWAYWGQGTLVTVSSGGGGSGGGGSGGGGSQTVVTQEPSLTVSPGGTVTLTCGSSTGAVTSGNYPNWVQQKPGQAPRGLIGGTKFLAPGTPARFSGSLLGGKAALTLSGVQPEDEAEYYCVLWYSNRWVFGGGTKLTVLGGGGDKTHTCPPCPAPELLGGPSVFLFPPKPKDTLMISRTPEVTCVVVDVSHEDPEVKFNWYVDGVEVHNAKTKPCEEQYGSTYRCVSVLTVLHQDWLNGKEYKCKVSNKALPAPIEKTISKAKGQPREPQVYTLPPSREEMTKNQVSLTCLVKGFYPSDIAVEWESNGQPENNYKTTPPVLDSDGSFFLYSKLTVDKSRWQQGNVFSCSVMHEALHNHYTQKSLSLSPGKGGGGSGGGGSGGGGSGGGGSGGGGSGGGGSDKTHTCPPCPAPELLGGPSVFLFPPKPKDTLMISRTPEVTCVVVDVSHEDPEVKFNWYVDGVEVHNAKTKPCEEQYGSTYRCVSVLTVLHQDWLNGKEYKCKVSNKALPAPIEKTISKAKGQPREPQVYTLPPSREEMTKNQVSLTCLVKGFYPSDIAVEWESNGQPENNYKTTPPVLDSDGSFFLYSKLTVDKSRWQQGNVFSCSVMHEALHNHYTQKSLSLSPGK
Sequence of Steap 1xCD3 TCE SEQ ID NO 373 + 374 + 375 (as listed by the source): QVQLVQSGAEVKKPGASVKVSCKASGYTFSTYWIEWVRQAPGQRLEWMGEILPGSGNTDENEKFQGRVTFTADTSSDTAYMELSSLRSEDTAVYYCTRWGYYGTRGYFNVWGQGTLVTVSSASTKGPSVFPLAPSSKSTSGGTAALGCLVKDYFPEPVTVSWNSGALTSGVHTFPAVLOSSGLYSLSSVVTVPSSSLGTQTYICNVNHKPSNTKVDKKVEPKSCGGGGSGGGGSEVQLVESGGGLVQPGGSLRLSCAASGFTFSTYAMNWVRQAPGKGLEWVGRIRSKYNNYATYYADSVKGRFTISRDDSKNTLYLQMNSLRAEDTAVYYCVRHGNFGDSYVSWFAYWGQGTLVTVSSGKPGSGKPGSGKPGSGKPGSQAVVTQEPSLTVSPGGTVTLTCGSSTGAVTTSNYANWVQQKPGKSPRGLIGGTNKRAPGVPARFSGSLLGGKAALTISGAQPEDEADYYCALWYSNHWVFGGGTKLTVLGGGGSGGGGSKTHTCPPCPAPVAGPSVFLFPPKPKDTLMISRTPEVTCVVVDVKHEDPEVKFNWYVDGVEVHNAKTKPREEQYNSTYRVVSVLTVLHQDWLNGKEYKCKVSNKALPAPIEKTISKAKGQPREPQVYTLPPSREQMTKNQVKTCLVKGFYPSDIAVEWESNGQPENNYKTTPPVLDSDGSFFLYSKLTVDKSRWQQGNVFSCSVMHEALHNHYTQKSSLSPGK
Sequence of Steap 1xCD3 TCE SEQ ID NO 373 + 374 + 375 (as listed by the source partner): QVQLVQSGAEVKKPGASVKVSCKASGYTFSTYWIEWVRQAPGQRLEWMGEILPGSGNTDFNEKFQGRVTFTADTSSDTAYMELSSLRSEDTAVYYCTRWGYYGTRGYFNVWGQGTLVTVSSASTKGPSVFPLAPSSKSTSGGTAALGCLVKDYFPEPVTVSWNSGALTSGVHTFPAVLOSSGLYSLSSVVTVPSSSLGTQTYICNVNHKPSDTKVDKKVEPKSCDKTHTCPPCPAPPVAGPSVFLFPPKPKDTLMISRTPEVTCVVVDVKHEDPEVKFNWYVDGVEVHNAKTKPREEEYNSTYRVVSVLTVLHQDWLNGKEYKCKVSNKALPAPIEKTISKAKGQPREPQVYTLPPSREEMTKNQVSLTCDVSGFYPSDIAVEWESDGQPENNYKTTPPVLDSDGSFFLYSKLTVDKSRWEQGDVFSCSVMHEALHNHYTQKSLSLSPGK
Sequence of Steap 1xCD3 TCE SEQ ID NO 373 + 374 + 375 (as listed by the source partner): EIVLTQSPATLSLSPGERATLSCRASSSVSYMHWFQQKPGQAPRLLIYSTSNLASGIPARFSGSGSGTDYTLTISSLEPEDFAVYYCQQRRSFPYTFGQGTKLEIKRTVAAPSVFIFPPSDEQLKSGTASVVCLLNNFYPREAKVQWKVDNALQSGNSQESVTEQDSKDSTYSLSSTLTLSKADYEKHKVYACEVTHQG
Sequence of DLL3xCD3 TCE SEQ ID NO 104 (as listed by the source): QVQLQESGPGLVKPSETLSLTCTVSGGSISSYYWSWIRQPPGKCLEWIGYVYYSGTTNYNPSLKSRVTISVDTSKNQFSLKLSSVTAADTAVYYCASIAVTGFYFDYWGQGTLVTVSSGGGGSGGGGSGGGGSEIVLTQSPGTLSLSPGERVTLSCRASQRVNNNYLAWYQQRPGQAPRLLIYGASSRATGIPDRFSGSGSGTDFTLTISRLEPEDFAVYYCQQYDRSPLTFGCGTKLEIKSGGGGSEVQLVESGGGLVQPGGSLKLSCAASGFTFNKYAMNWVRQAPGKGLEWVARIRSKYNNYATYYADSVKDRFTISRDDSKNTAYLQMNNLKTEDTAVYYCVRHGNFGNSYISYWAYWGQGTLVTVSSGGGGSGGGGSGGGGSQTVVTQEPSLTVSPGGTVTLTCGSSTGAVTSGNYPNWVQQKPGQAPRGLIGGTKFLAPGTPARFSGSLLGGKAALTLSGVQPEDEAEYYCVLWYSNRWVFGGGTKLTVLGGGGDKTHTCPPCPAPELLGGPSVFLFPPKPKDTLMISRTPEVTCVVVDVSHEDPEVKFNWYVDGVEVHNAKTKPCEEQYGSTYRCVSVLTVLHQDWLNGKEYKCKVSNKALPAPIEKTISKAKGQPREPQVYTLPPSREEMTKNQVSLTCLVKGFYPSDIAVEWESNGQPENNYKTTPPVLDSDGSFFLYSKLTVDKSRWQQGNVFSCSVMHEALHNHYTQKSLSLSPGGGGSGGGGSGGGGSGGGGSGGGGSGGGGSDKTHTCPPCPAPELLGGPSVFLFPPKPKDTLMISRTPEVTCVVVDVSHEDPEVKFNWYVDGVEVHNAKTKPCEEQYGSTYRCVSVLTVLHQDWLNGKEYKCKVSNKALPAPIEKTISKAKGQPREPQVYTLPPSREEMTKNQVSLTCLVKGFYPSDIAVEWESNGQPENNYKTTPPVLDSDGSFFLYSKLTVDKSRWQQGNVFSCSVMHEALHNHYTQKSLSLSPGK
Sequence of STEAP1xCD3 TCE (as listed by the source): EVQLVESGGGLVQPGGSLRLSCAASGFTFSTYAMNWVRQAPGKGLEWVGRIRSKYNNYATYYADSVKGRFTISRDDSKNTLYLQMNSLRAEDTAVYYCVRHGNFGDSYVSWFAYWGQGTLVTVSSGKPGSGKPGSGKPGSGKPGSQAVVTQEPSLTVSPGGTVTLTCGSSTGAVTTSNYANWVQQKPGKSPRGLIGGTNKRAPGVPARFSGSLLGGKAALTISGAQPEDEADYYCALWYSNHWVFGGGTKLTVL

Substance: (pE-DGNEEMGKGMEENGDQC)4-PEG(20 kDa) ([pGlu]DGNEEMGKGMEENGDQC; also: four copies attached to PEG(20 kDa), site not given here)
- IL-6 serum concentration (CD20 TCE; 0.010 mg/kg CD20 TCE + 0.016 mg/kg (25×)): moderate increase in IL-6 serum concentration for n=1 of 2 animals
- IL-6 stimulation (CD20 TCE; 0.010 mg/kg CD20 TCE + 0.16 mg/kg (250×)): No IL-6 stimulation was observed
- difference in CD20 TCE cytolytic activity vs CD20 TCE control group (CD20 TCE; 0.010 mg/kg CD20 TCE IV): No apparent difference
- circulating CD20+ B lymphocytes (CD20 TCE; 0.010 mg/kg CD20 TCE IV alone or in combination): complete elimination
- reduction in peak serum MCP-1 (CD20 TCE; 4 hr, 250× combo group, 0.010 mg/kg CD20 TCE IV): ~ 98%
- TNF-α and IFN-γ (CD20 TCE; CD20 TCE + 0.160 mg/kg, all time points, both animals): not detected above the assay LLOQ
- IL-2 response (CD20 TCE; any group): No detectable IL-2 response
- T cell activation, early (CD69+) and late (CD25+) markers by flow cytometry (CD20 TCE; co-administration with 0.010 mg/kg CD20 TCE, 20 day study): pronounced effect on T cell activation
- C-reactive protein (CRP) (CD20 TCE; combo groups relative to CD20 TCE monotherapy 0.010 mg/kg IV): dose-dependent decrease in CRP
- koff [1]: 0.00195 s⁻¹
- elimination half-lives [2]: ~102 min

Substance: pGlu-DGEEELKGC (N-terminal pyroglutamate; VARIANT 1 Pyroglutamic acid)
- IC50 (STEAP1xCD3 TCE): 28.6 nM
- IC50 (FLT3xCD3 TCE): 14.7 nM
- ka [3]: 3.81e+06 M⁻¹ s⁻¹
- kd [3]: 0.0624 s⁻¹
- Kd [4]: 0.0274 µM
- ka [4]: 3.04e+06 M⁻¹ s⁻¹
- kd [4]: 0.0834 s⁻¹
- fast component for the off-rate ([5]; bivalent analyte model): 0.236 s⁻¹
- fast component of the on-rate ([5]; bivalent analyte model): 1.29e+06 M⁻¹ s⁻¹
- Kd ([5]; immobilized peptide, SS Affinity model): 0.0725 µM
- Kd [6]: 0.0205 µM
- ka [6]: 2.64e+06 M⁻¹ s⁻¹
- kd [6]: 0.0542 s⁻¹
- Kd [7]: 0.0073 µM
- ka [7]: 4.04e+06 M⁻¹ s⁻¹
- kd [7]: 0.0295 s⁻¹
